Laboratory results as given in patent publication US8354522B2, “Immunostimulatory oligoribonucleotides” (Coley Pharmaceutical GmbH, priority 2005, dated 2013).
Like-named read-outs stand apart in the source and are kept apart here.

Tested on: Human PBMC
Assay: Cytokine production upon human PBMC stimulation (ORN complexed to DOTAP, 16 h, ELISA)
Type: cell-based
Set-up: key to IFN-alpha / TNF-alpha: +: cytokine production; −: no cytokine production
Settings: for IFN-alpha / TNF-alpha: human PBMC stimulated for 16 h, supernatant ELISA; for EC50 / IFN-alpha max activity / TNF-alpha max activity: ORN complexed to DOTAP, 16 h; for EC50: full titration 2 μM to 0.9 nM; for IFN-alpha max activity / TNF-alpha max activity: mean max activity at 0.6 μM, 3-6 blood donors
Procedure: Human peripheral blood mononuclear cells (PBMCs) were isolated from healthy donors, plated, and stimulated in vitro with various test and control immunostimulatory agents for 16 hours. After 16 hours, the supernatants were collected and then analyzed by ELISA assay. N-U-R1-R2,-Containing Oligoribonucleotides were tested complexed to DOTAP and with full titration curves (7 concentrations), starting from 2 μM ORN complexed to 25 μg/ml DOTAP and with 1/3 dilution steps. Also included were certain negative controls, including medium alone and DOTAP (25 μg/ml culture well; “Liposomes”) alone. The control immunostimulatory agents included the imidazoquinoline R-848 (2 μM with 1/3 dilution steps and 7 concentrations) the reported ligand for TLR7, ORN having TLR8 motifs such as AU and AUU sequences (SEQ ID NO:13-SEQ ID NO:15) ORN having TLR7/8 motifs such as CU, GU and GUU sequences (SEQ ID NO:19-SEQ ID NO:23).
Human PBMC were stimulated with ORN complexed to DOTAP. After 16 hours supernatants were harvested and TNF-alpha and IFN-alpha levels were measured. Mean/Max activities at 0.6 μM of 3-6 blood donors and two individual experiments were determined. […] TLR8 and TLR7/8 ORN are divided by a red line.
Human PBMC were stimulated with ORN complexed to DOTAP. After 16 hours supernatants were harvested and IFN-alpha levels were measured. Mean/Max activities at 0.6 μM and EC50 of full titration curves (range: 2 μM to 0.9 nM) of 3-6 blood donors and two individual experiments were determined. […] Low EC50/high Max activity represents TLR7/8 ORN (FIG. 5a) whereas high EC50 and low Max activity represents TLR8 ORN (FIG. 5b).
The ORN sequences listed in Table 1 were tested for IFN-alpha and TNF-alpha production upon human PBMC stimulation. Human PBMC were stimulated for 16 h with the indicated ORN, and supernatants were harvested and cytokine production measured by ELISA. Table 2 summarizes the min/max activity and EC50 of ORN for IFN-alpha and TNF-alpha production.

[1] = human PBMC, read-out: IFN-alpha EC50
[2] = human PBMC, read-out: TNF-alpha EC50

| Substance | IFN-alpha | TNF-alpha | EC50 [1] | EC50 [2] | IFN-alpha max activity (human PBMC) | TNF-alpha max activity (human PBMC) | IFN-alpha production upon PBMC stimulation (in words) (human PBMC) | TNF-alpha production upon PBMC stimulation (in words) (human PBMC) |
| --- | --- | --- | --- | --- | --- | --- | --- | --- |
| dN*dN*dN*dN*dN*N*A*U*A*U*N*N*dN*dN*dN*dN*dN*dN [SEQ ID NO: 7] | − | + |  |  |  |  |  |  |
| U*G*U*G*U*G*U (UGUGUGU; phosphorothioate linkages, chemistry not fully specified) [SEQ ID NO: 31] | + | + |  |  |  |  |  |  |
| C*C*G*A*G*C*C*G*A*T*U*U*C*A*C*C [SEQ ID NO: 78] (CCGAGCCGANUUCACC; Oligoribonucleotide, chemistry of T and the '*' linkage is not given here, further chemistry not given here) |  |  | 6 nM | 241 nM | 1609 pg/mL | 20126 pg/mL |  |  |
| A*U*A*G*G*C*A*C (AUAGGCAC; phosphorothioate linkages, chemistry not fully specified) [SEQ ID NO: 4] | − | + |  |  |  |  |  |  |
| U*U*U*G*U*U*U*G*U*U*U*G*U*U*U*G*U*U*U*G (UUUGUUUGUUUGUUUGUUUG; listed as RNA, chemistry not fully specified) [SEQ ID NO: 22] | + | + |  |  |  |  |  |  |
| C*C*G*A*G*C*C*G*C*A*A*U*U*C*C*C [SEQ ID NO: 52] (CCGAGCCGCAAUUCCC; listed as RNA, chemistry not fully specified) |  |  | 508 nM | 895 nM | 2263 pg/mL | 11920 pg/mL |  |  |
| U*C*U*C*U*C*U (UCUCUCU; phosphorothioate linkages, chemistry not fully specified) [SEQ ID NO: 32] | + | + |  |  |  |  |  |  |
| C*C*G*A*G*C*C*G*C*U*A*U*U*C*C*C (CCGAGCCGCUAUUCCC; listed as RNA, chemistry not fully specified) [SEQ ID NO: 51] |  |  | 582 nM | 125 nM | 2615 pg/mL | 23325 pg/mL |  |  |
| G*U*C*G*U*C*G*U*C*G*U*C*G*U*C*G*U*C*G*U (GUCGUCGUCGUCGUCGUCGU; listed as RNA, chemistry not fully specified) [SEQ ID NO: 26] | + | + |  |  |  |  |  |  |
| C*C*G*A*G*C*C*G*C*A*U*A*U*C*C*C (CCGAGCCGCAUAUCCC; listed as RNA, chemistry not fully specified) [SEQ ID NO: 36] |  |  | ≥ 1500 nM | 850 nM | 110.4 pg/mL | 18063 pg/mL |  |  |
| C*C*G*A*G*C*C*G*A*G*U*U*C*A*C*C [SEQ ID NO: 67] (CCGAGCCGAGUUCACC; listed as RNA, chemistry not fully specified) |  |  | 81 nM | 79 nM | 2094 pg/mL | 40729 pg/mL |  |  |
| C*U*A*C*U*A*C*U*A*C*U*A*C*U*A*C*U*A*C*U (CUACUACUACUACUACUACU; listed as RNA, chemistry not fully specified) [SEQ ID NO: 24] | − | + |  |  |  |  | no IFN-alpha production | TNF-alpha inducing |
| C*C*G*A*G*C*C*G*C*C*U*A*A*C*C*C (CCGAGCCGCCUAACCC; listed as RNA, chemistry not fully specified) [SEQ ID NO: 43] |  |  | > 2000 nM | 954 nM | 144.3 pg/mL | 10261 pg/mL |  |  |
| C*C*G*A*G*C*C*G*C*C*U*A*C*C*C*C (CCGAGCCGCCUACCCC; listed as RNA, chemistry not fully specified) [SEQ ID NO: 47] |  |  | ≥ 1500 nM | 566 nM | 271.9 pg/mL | 14265 pg/mL |  |  |
| C*C*G*A*G*C*C*G*A*T*U*U*C*A*C*C [SEQ ID NO: 68] (CCGAGCCGANUUCACC; Oligoribonucleotide, chemistry of T and the '*' linkage is not given here, further chemistry not given here) |  |  | 18 nM | 217 nM | 1821 pg/mL | 29647 pg/mL |  |  |
| A*A*A*U*A*A*A*U*A*A*A*U*A*A*A*U*A*A*A*U (AAAUAAAUAAAUAAAUAAAU; listed as RNA, chemistry not fully specified) [SEQ ID NO: 17] | − | + |  |  |  |  |  |  |
| C*C*G*A*G*C*C*G*C*A*U*U*C*C*C*C (CCGAGCCGCAUUCCCC; listed as RNA, chemistry not fully specified) [SEQ ID NO: 54] |  |  | 780 nM | 339 nM | 1233 pg/mL | 12595 pg/mL |  |  |
| U*U*A*U*U*A*U (UUAUUAU; phosphorothioate linkages, chemistry not fully specified) [SEQ ID NO: 30] | − | + |  |  |  |  |  |  |
| C*U*C*U*C*U*C*U*C*U*C*U*C*U*C*U*C*U*C*U (CUCUCUCUCUCUCUCUCUCU; listed as RNA, chemistry not fully specified) [SEQ ID NO: 19] | + | + |  |  |  |  |  |  |
| C*C*G*A*G*C*C*G*A*A*G*A*U*A*C*C (CCGAGCCGAAGAUACC; listed as RNA, chemistry not fully specified) [SEQ ID NO: 85] |  |  | > 2000 nM | 215 nM | 193.7 pg/mL | 17146 pg/mL |  |  |
| C*C*G*A*G*C*C*G*C*A*U*A*A*C*C*C (CCGAGCCGCAUAACCC; listed as RNA, chemistry not fully specified) [SEQ ID NO: 41] |  |  | > 2000 nM | 897 nM | 97.97 pg/mL | 10756 pg/mL |  |  |
| G*C*C*A*C*C*G*A*G*C*C*G*A*A*U*A*U*A*C*C (GCCACCGAGCCGAAUAUACC; listed as RNA, chemistry not fully specified) [SEQ ID NO: 11] | − | + |  |  |  |  |  |  |
| dN*dN*dN*dN*dN*A*U*A*U*A*U*A*U*dN*dN*dN*dN*dN*dN [SEQ ID NO: 9] | − | + |  |  |  |  |  |  |
| C*C*G*A*G*C*C*G*C*U*U*A*A*C*C*C (CCGAGCCGCUUAACCC; listed as RNA, chemistry not fully specified) [SEQ ID NO: 49] |  |  | 375 nM | 350 nM | 3367 pg/mL | 18039 pg/mL |  |  |
| C*C*G*A*G*C*C*G*A*G*U*U*C*A*C*C [SEQ ID NO: 77] (CCGAGCCGAGUUCACC; listed as RNA, chemistry not fully specified) |  |  | 151 nM | 257 nM | 2519 pg/mL | 21820 pg/mL |  |  |
| C*C*G*A*G*C*C*G*A*A*G*G*U*G*C*C (CCGAGCCGAAGGUGCC; listed as RNA, chemistry not fully specified) [SEQ ID NO: 83] |  |  | > 2000 nM | 215 nM | 96.22 pg/mL | 12207 pg/mL |  |  |
| C*C*G*A*G*C*C*G*C*U*A*U*C*C*C*C (CCGAGCCGCUAUCCCC; listed as RNA, chemistry not fully specified) [SEQ ID NO: 55] |  |  | > 2000 nM | 337 nM | 224.4 pg/mL | 15154 pg/mL |  |  |
| C*C*G*A*G*C*C*G*A*U*U*U*T*A*C*C (CCGAGCCGAUUUNACC; Oligoribonucleotide, chemistry of T and the '*' linkage is not given here, further chemistry not given here) [SEQ ID NO: 72] |  |  | 75 nM | 146 nM | 1896 pg/mL | 38811 pg/mL |  |  |
| C*C*G*A*G*C*C*G*A*A*U*G*U*A*C*C (CCGAGCCGAAUGUACC; listed as RNA, chemistry not fully specified) [SEQ ID NO: 63] |  |  | 1840 nM | 309 nM | 177.3 pg/mL | 34219 pg/mL |  |  |
| C*C*G*A*G*C*C*G*C*U*U*A*C*C*C*C (CCGAGCCGCUUACCCC; listed as RNA, chemistry not fully specified) [SEQ ID NO: 53] |  |  | 244 nM | 952 nM | 3091 pg/mL | 14623 pg/mL |  |  |
